Assay results from patent publication US9701664B2, “Fused 1,4-dihydrodioxin derivatives as inhibitors of heat shock transcription factor 1” (Cancer Research Technology Limited, priority 2013, dated 2017).
Where a name gives a salt, the structure may show the parent alone.

What was measured:
U2OS cells = assay: Titre Blue cell viability assay, U2OS cells; assay type: cell-based; conditions: Homo sapiens, U2OS
HSP72 in U2OS cells = assay: Cell-based ELISA (Cellisa) assay, U2OS cells: inhibition of 17-AAG-induced HSP72; conditions: Homo sapiens; U2OS cells (Examples 1-168)

| SMILES | IC50 (U2OS cells) [nM] | IC50 (HSP72 in U2OS cells) [nM] |
| --- | --- | --- |
| Cc1ccc(NC(=O)c2ccc3c(c2)OCCO3)cc1NC(=O)c1cnc2ncccc2c1 [Example 45, N-(5-(2,3-dihydrobenzo[b][1,4]dioxine-6-carboxamido)-2-methylphenyl)-1,8-naphthyridine-3-carboxamide] | 85 | 36 |
| Cc1ccc(NC(=O)c2ccc3c(c2)OCCO3)cc1NC(=O)c1ccc2cnccc2c1 [Example 46, N-(5-(2,3-dihydrobenzo[b][1,4]dioxine-6-carboxamido)-2-methylphenyl)isoquinoline-6-carboxamide] | 12 | 4 |
| Cc1ccc(NC(=O)c2ccc3c(c2)OCCO3)cc1NC(=O)c1cnc2ccccc2c1 [Example 47, N-(5-(2,3-dihydrobenzo[b][1,4]dioxine-6-carboxamido)-2-methylphenyl)quinoline-3-carboxamide] | 12 | 4 |
| Cc1ccc(NC(=O)c2ccc3c(c2)OCCO3)cc1NC(=O)c1ccc2[nH]c(=O)ccc2c1 [Example 48, N-(5-(2,3-dihydrobenzo[b][1,4]dioxine-6-carboxamido)-2-methylphenyl)-2-oxo-1,2-dihydroquinoline-6-carboxamide] | 172 | 141 |
| Cc1ccc(NC(=O)c2ccc3c(c2)OCCO3)cc1NC(=O)c1ccc2nc(O[C@@H]3CCN(C)C3)ccc2c1 [Example 49, (R)—N-(5-(2,3-dihydrobenzo[b][1,4]dioxine-6-carboxamido)-2-methylphenyl)-2-((1-methylpyrrolidin-3-yl)oxy)quinoline-6-carboxamide] | 8 | 2 |
| Cc1ccc(NC(=O)c2ccc3c(c2)OCCO3)cc1NC(=O)c1ccc2nc(OC3CCN(C)CC3)ccc2c1 [Example 50, N-(5-(2,3-dihydrobenzo[b][1,4]dioxine-6-carboxamido)-2-methylphenyl)-2-((1-methylpiperidin-4-yl)oxy)quinoline-6-carboxamide] | 10 | 3 |
| Cc1ccc(NC(=O)c2ccc3c(c2)OCCO3)cc1NC(=O)c1ccc2nc(OCCCN(C)C)ccc2c1 [Example 51, N-(5-(2,3-dihydrobenzo[b][1,4]dioxine-6-carboxamido)-2-methylphenyl)-2-(3-(dimethylamino)propoxy)quinoline-6-carboxamide] | 10 | 4 |
| Cc1ccc(NC(=O)c2ccc3c(c2)OCCO3)cc1NC(=O)c1ccc2nc(OCCCN3CCCCC3)ccc2c1 [Example 52, N-(5-(2,3-dihydrobenzo[b][1,4]dioxine-6-carboxamido)-2-methylphenyl)-2-(3-(piperidin-1-yl)propoxy)quinoline-6-carboxamide] | 6 | 12 |
| Cc1ccc(NC(=O)c2ccc3c(c2)OCCO3)cc1NC(=O)c1ccc2nc(OC[C@@H]3CCCN3C)ccc2c1 [Example 53, (S)—N-(5-(2,3-dihydrobenzo[b][1,4]dioxine-6-carboxamido)-2-methylphenyl)-2-((1-methylpyrrolidin-2-yl)methoxy)quinoline-6-carboxamide] | 7 | 7 |
| Cc1ccc(NC(=O)c2ccc3c(c2)OCCO3)cc1NC(=O)c1ccc2nc(OCCN3CCCCC3)ccc2c1 [Example 54, N-(5-(2,3-dihydrobenzo[b][1,4]dioxine-6-carboxamido)-2-methylphenyl)-2-(2-(piperidin-1-yl)ethoxy)quinoline-6-carboxamide] | 7 | 10 |
| Cc1ccc(NC(=O)c2ccc3c(c2)OCCO3)cc1NC(=O)c1ccc2nc(OCCCN3CCOCC3)ccc2c1 [Example 55, N-(5-(2,3-dihydrobenzo[b][1,4]dioxine-6-carboxamido)-2-methylphenyl)-2-(3-morpholinopropoxy)quinoline-6-carboxamide] | 20 | 13 |
| Cc1ccc(NC(=O)c2ccc3c(c2)OCCO3)cc1NC(=O)c1ccc2nc(OCCCN3CCCC3)ccc2c1 [Example 56, N-(5-(2,3-dihydrobenzo[b][1,4]dioxine-6-carboxamido)-2-methylphenyl)-2-(3-(pyrrolidin-1-yl)propoxy)quinoline-6-carboxamide] | 3 | 13 |
| Cc1ccc(NC(=O)c2ccc3c(c2)OCCO3)cc1NC(=O)c1ccc2nc(OCCN3CCCC(F)C3)ccc2c1 (stereo not shown) [Example 57, N-(5-(2,3-dihydrobenzo[b][1,4]dioxine-6-carboxamido)-2-methylphenyl)-2-(2-(3-fluoropiperidin-1-yl)ethoxy)quinoline-6-carboxamide] | 31 | 37 |
| Cc1ccc(NC(=O)c2ccc3c(c2)OCCO3)cc1NC(=O)c1ccc2nc(N(C)CCN(C)C)ccc2c1 [Example 58, N-(5-(2,3-dihydrobenzo[b][1,4]dioxine-6-carboxamido)-2-methylphenyl)-2-((2-(dimethylamino)ethyl)(methyl)amino)quinoline-6-carboxamide] | 33 | 15 |
| Cc1ccc(NC(=O)c2ccc3c(c2)OCCO3)cc1NC(=O)c1ccc2nc(CCN3CCCC3)ccc2c1 [Example 59, N-(5-(2,3-dihydrobenzo[b][1,4]dioxine-6-carboxamido)-2-methylphenyl)-2-(2-(pyrrolidin-1-yl)ethyl)quinoline-6-carboxamide] | 410 | 15 |
| Cc1ccc(NC(=O)c2ccc3c(c2)OCCO3)cc1NC(=O)c1ccc2nc(OCCN3CCC3)ccc2c1 [Example 60, 2-(2-(azetidin-1-yl)ethoxy)-N-(5-(2,3-dihydrobenzo[b][1,4]dioxine-6-carboxamido)-2-methylphenyl)quinoline-6-carboxamide] | 13 | 16 |
| Cc1ccc(NC(=O)c2ccc3c(c2)OCCO3)cc1NC(=O)c1ccc2nc(OCCN3CCCC3C)ccc2c1 (stereo not shown) [Example 61, N-(5-(2,3-dihydrobenzo[b][1,4]dioxine-6-carboxamido)-2-methylphenyl)-2-(2-(2-methylpyrrolidin-1-yl)ethoxy)quinoline-6-carboxamide] | 18 | 16 |
| Cc1ccc(NC(=O)c2ccc3c(c2)OCCO3)cc1NC(=O)c1ccc2nc(OCCN(C)C)ccc2c1 [Example 62, N-(5-(2,3-dihydrobenzo[b][1,4]dioxine-6-carboxamido)-2-methylphenyl)-2-(2-(dimethylamino)ethoxy)quinoline-6-carboxamide] | 16 | 17 |
| Cc1ccc(NC(=O)c2ccc3c(c2)OCCO3)cc1NC(=O)c1ccc2nc(N(C)CCN3CCCC3)ccc2c1 [Example 64, N-(5-(2,3-dihydrobenzo[b][1,4]dioxine-6-carboxamido)-2-methylphenyl)-2-(methyl(2-(pyrrolidin-1-yl)ethyl)amino)quinoline-6-carboxamide] | 32 | 25 |
| Cc1ccc(NC(=O)c2ccc3c(c2)OCCO3)cc1NC(=O)c1ccc2nc(OCCN3CC[C@H](F)C3)ccc2c1 [Example 65, (S)—N-(5-(2,3-dihydrobenzo[b][1,4]dioxine-6-carboxamido)-2-methylphenyl)-2-(2-(3-fluoropyrrolidin-1-yl)ethoxy)quinoline-6-carboxamide] | 7 | 29 |
| Cc1ccc(NC(=O)c2ccc3c(c2)OCCO3)cc1NC(=O)c1ccc2nc(OCCN3CCOCC3)ccc2c1 [Example 66, N-(5-(2,3-dihydrobenzo[b][1,4]dioxine-6-carboxamido)-2-methylphenyl)-2-(2-morpholinoethoxy)quinoline-6-carboxamide] | 40 | 30 |
| Cc1ccc(NC(=O)c2ccc3c(c2)OCCO3)cc1NC(=O)c1ccc2nc(CN3CCCC3)ccc2c1 [Example 67, N-(5-(2,3-dihydrobenzo[b][1,4]dioxine-6-carboxamido)-2-methylphenyl)-2-(pyrrolidin-1-ylmethyl)quinoline-6-carboxamide formate] | 33 | 35 |
| Cc1ccc(NC(=O)c2ccc3c(c2)OCCO3)cc1NC(=O)c1ccc2nc(OCC(C)N3CCCC3)ccc2c1 (stereo not shown) [Example 68, N-(5-(2,3-dihydrobenzo[b][1,4]dioxine-6-carboxamido)-2-methylphenyl)-2-(2-(pyrrolidin-1-yl)propoxy)quinoline-6-carboxamide] | 12 | 41 |
| Cc1ccc(NC(=O)c2ccc3c(c2)OCCO3)cc1NC(=O)c1ccc2nc(CCN(C)C)ccc2c1 [Example 69, N-(5-(2,3-dihydrobenzo[b][1,4]dioxine-6-carboxamido)-2-methylphenyl)-2-(2-(dimethylamino)ethyl)quinoline-6-carboxamide] | 305 | 57 |
| Cc1ccc(NC(=O)c2ccc3c(c2)OCCO3)cc1NC(=O)c1ccc2nc(CN3CCN(C)CC3)ccc2c1 [Example 70, N-(5-(2,3-dihydrobenzo[b][1,4]dioxine-6-carboxamido)-2-methylphenyl)-2-((4-methylpiperazin-1-yl)methyl)quinoline-6-carboxamide] | 92 | 59 |
| Cc1ccc(NC(=O)c2ccc3c(c2)OCCO3)cc1NC(=O)c1ccc2nc(CN(C)C)ccc2c1 [Example 71, N-(5-(2,3-dihydrobenzo[b][1,4]dioxine-6-carboxamido)-2-methylphenyl)-2-((dimethylamino)methyl)quinoline-6-carboxamide] | 118 | 82 |
| Cc1ccc(NC(=O)c2ccc3c(c2)OCCO3)cc1NC(=O)c1ccc2nc(OCCN3CCC(F)(F)CC3)ccc2c1 [Example 72, 2-(2-(4,4-difluoropiperidin-1-yl)ethoxy)-N-(5-(2,3-dihydrobenzo[b][1,4]dioxine-6-carboxamido)-2-methylphenyl)quinoline-6-carboxamide] | 60 | 105 |
| Cc1ccc(NC(=O)c2ccc3c(c2)OCCO3)cc1NC(=O)c1ccc2nc(OC(C)CN3CCCC3)ccc2c1 (stereo not shown) [Example 73, N-(5-(2,3-dihydrobenzo[b][1,4]dioxine-6-carboxamido)-2-methylphenyl)-2-((1-(pyrrolidin-1-yl)propan-2-yl)oxy)quinoline-6-carboxamide] | 21 | 90 |
| Cc1ccc(NC(=O)c2ccc3c(c2)OCCO3)cc1NC(=O)c1ccc2nc(CCO)ccc2c1 [Example 75, N-(5-(2,3-dihydrobenzo[b][1,4]dioxine-6-carboxamido)-2-methylphenyl)-2-(2-hydroxyethyl)quinoline-6-carboxamide] | 56 | 17 |
